Consider eight compounds from patent US8785424B2, “ngCycloartanone derivatives with anticancer activity” (Pierre Fabre Medicament, priority 2009, dated 2014).

For this experiment, the system named is proteasome. The experiment in a line: Cellular proteasome inhibition test: accumulation of 4Ub-Luc reporter (luciferase activity) in DLD-1 4Ub-Luc cell line. It is filed as cell-based, human. The note with it: DLD-1 4Ub-Luc cells, 8 hours, epoxomicin = 100%. The protocol: Biological tests were carried out according to protocols described in the following articles: Ausseil F. et al. J. Biomol Screen. 2007, 12, 106-116 and Vandenberghe I. et al. Biochemical Pharmacology 2008, 76, 453-462.
In order to select novel proteasome inhibitor compounds, it is necessary to indirectly measure the activity of this proteasome within cells. To this end, we constructed a stable cell line, DLD-1 4Ub-Luc, arising from a human colon cancer cell line, which produces a chimeric reporter protein called 4Ub-Luc. This protein is a fusion between a 4-ubiquitin (4Ub) label and luciferase (Luc). This label is capable to direct every proteins that carry it toward the proteasome. The 4Ub-Luc protein is thus efficiently degraded by the proteasome, in contrast to the “wild” non-fused Luc protein. When the DLD-1 4Ub-Luc cell line is treated with a proteasome inhibitor, the fusion protein is much less efficiently degraded and accumulates in the cell. This accumulation is detected by an increase in luciferase activity in the treated extract compared to the extract from untreated cells. The control consists of verifying that the inhibitor has no effect on accumulation of the wild Luc protein produced by the stable DLD-1 RF cell line. For both cell lines and for each product an induction factor is determined for the product tested (or the reference) corresponding to the ratio between the luciferase activities measured in cells treated with this product (or the reference) and cells treated with solvent alone.
The product's activity is then defined by its relative induction factor, i.e., the ratio of its induction factor (IF % luminescence) to that of the reference molecule epoxomicin (IF=100%; see data presented in the table below).
Thus, the test established by Pierre-Fabre is a cellular test that has the advantage, compared to a purely enzymatic test, of detecting only products capable of penetrating the cell.
Two cell lines are used for this test: DLD-1 RF and DLD-1 4Ub-Luc. The culture medium used is as follows: • MEM • 5% fetal calf serum • 5 ml of penicillin-streptomycin • 2.5 ml of FUNGIZONE® (Amphotericin B) • 10 ml of […]
Day 1: Inoculate white 96-well culture-treated plates (PerkinElmer White ViewPlate, product no. 6005181) with 100 μl of 1·10^5 c/ml cell suspension per well. Incubate for 24 hours so that the cells adhere. On each plate five columns will be inoculated with DLD-1 4Ub-Luc and five others with DLD-1 RF according to diagram 1 below.
Day 2: Remove the medium by turning the plates upside down on cotton, and then carry out the treatment with the compounds of the invention, with solvent alone or with a reference compound such as epoxomicin. […]
The columns are paired (examples 2 and 8, 3 and 9, 4 and 10 and 5 and 11) and treated with the same compound. Columns 6 and 7 receive the experimental control, namely 0.1% DMSO in culture medium for wells B, C, D, and E of columns 6 and 7, and the positive control (10^−7 M epoxomicin) in wells F and G.
After incubation, turn the plate upside down on cotton to empty the wells, rinse with 50 μl of PBS to remove any trace of the cytotoxin tested and then add 50 μl of 5× passive lysis buffer (Promega, product no. E1941) diluted to ⅕ in water. Shake energetically using a plate shaker for 5 to 10 minutes at room temperature before freezing at −20° C.
Luciferase activity is measured using a Luciferase Assay System 10-Pack kit (Promega, product no. E1501).
On the day luciferase activity is to be measured, defrost the plates and wait until they have returned to room temperature. The optimal temperature for luciferase activity is 20-25° C.
Reconstitute the firefly luciferase substrate by defrosting the buffer and then adding 10 ml of buffer to the bottle containing the freeze-dried substrate. Wait until the solution is at room temperature before beginning the assay. […]

The mark [1] stands for this setting: concentration tested 5 · 10^−6 M.
Where [2] appears, read: concentration tested 5 · 10^−7 M.

Each structure is given as a SMILES string. Structures can show the parent of a compound that is named as a salt.

Regarding `CC(=O)O[C@H]1C[C@@]2(C)[C@@H]3CC[C@H]4[C@H](C)C(=O)C=C[C@@]45C[C@@]35CC[C@]2(C)[C@H]1[C@H](C)[C@@H](OC(C)=O)C12OCC(C)C1Cc1ccc(O)cc1O2` (stereo partly drawn) [Compound 88, Neoboutomellerone Resorcinol Derivative], the “relative induction factor (IF % luminescence) versus epoxomicin” value runs as follows: under setting [1], 47%; (concentration tested 10^−5 M) 78%; (concentration tested 10^−6 M) 1%.

Consider `C=C(C(=O)[C@H](OC(C)=O)[C@@H](C)[C@H]1[C@@H](OC(C)=O)C[C@@]2(C)[C@@H]3CC[C@H]4[C@H](C)C(=O)C=C[C@@]45C[C@@]35CC[C@]12C)[C@@H](C)COC` [Compound 19, 26-methoxy-neoboutomellerone], for which the “relative induction factor (IF % luminescence) versus epoxomicin” value reads like this: under setting [1], 45%; under setting [2], 1%; (concentration tested 10^−6 M) 40%.

For `C=C(C(=O)[C@H](OC(C)=O)[C@@H](C)[C@H]1[C@@H](OC(C)=O)C[C@@]2(C)[C@@H]3CC[C@H]4[C@H](C)C(=O)C=C[C@@]45C[C@@]35CC[C@]12C)C(C)C` [Compound 8, 26-dehydroxy-neoboutomellerone], the “relative induction factor (IF % luminescence) versus epoxomicin” value was 74% under setting [1], 19% (concentration tested 10^−5 M) and 7% (concentration tested 10^−6 M).

For the compound `C=C(C(=O)[C@H](O)[C@@H](C)[C@H]1[C@@H](OC(C)=O)C[C@@]2(C)C3CCC4[C@H](C)C(=O)C=C[C@@]45C[C@@]35CC[C@]12C)[C@@H](C)COC(=O)CN(C)C` (stereo partly drawn) [Compound 65, 22-deacetyl-neoboutomellerone 26-N dimethyl glycinate hydrochloride], the “relative induction factor (IF % luminescence) versus epoxomicin” value is 34% (concentration tested 5 · 10^−6 M, hydrochloride); 1% under setting [2]; 4% (concentration tested 10^−5 M, hydrochloride); 17% (concentration tested 10^−6 M, hydrochloride).

For the compound `C=C(C(=O)[C@H](O)[C@@H](C)[C@H]1[C@@H](OC(C)=O)C[C@@]2(C)[C@@H]3CC[C@H]4[C@H](C)C(=O)C=C[C@@]45C[C@@]35CC[C@]12C)[C@@H](C)CO` [Compound 1, 22-deacetyl-neoboutomellerone], the “relative induction factor (IF % luminescence) versus epoxomicin” value reads like this: under setting [1], 28%; under setting [2], 1%; (concentration tested 10^−5 M) 3%; (concentration tested 10^−6 M) 45%.

As to `C=C(C(=O)[C@H](OC(C)=O)[C@@H](C)[C@H]1[C@@H](OC(C)=O)C[C@@]2(C)[C@@H]3CC[C@H]4[C@H](C)/C(=N/OCc5ccccc5)C=C[C@@]45C[C@@]35CC[C@]12C)[C@@H](C)CO` [Compound 36, 3-anti-O-benzyloxime-neoboutomellerone], the “relative induction factor (IF % luminescence) versus epoxomicin” value came to 12% under setting [1], 6% (concentration tested 10^−5 M) and 1% (concentration tested 10^−6 M).

For `C=C(C(=O)[C@H](OC(C)=O)[C@@H](C)[C@H]1[C@@H](OC(C)=O)C[C@@]2(C)[C@@H]3CC[C@H]4[C@H](C)C(=O)C=C[C@@]45C[C@@]35CC[C@]12C)[C@@H](C)COC(=O)Nc1ccccc1` [Compound 20, 26-N-phenylcarbamate-neoboutomellerone], the “relative induction factor (IF % luminescence) versus epoxomicin” value was determined as 60% under setting [1], 6% under setting [2] and 42% (concentration tested 10^−6 M).

For the compound `C=C(C(=O)[C@H](O)[C@@H](C)[C@H]1[C@@H](OC(C)=O)C[C@@]2(C)[C@@H]3CC[C@H]4[C@H](C)C(=O)C=C[C@@]45C[C@@]35CC[C@]12C)[C@@H](C)COC(=O)N1CCN(C)CC1` [Compound 23, 26-N—(N-methylpiperazine)carbamate-22-deacetyl-neoboutomellerone], the “relative induction factor (IF % luminescence) versus epoxomicin” value runs as follows: under setting [1], 7%; under setting [2], 15%; (concentration tested 10^−5 M) 2%; (concentration tested 10^−6 M) 69%.
